A short description of data set [1]: Pharmacokinetic evaluation in ICR mice after intravenous injection. The class given is in vivo. Particulars: mouse; ICR male mice, 1.0 mg/kg intravenous, plasma. How it is done:
A test compound (1.0 mg/kg) was administered to fasted ICR male mice via intravenous injection, and blood samples were collected at time points of 0.08, 0.25, 0.5, 1, 2, 4, 6, 8 and 24 h after the administration. Plasma sample was separated by centrifugation (8000 rpm) and stored at −80° C. until the sample was analyzed. Concentrations of the test compound in the plasma were determined by HPLC-MS/MS: the plasma was dispensed into appropriate tubes containing internal standard and methanol or acetonitrile. The tubes were mixed vigorously for 3 minutes to achieve deproteinization and then centrifuged at 8000 rpm for 5 minutes. The supernatant was transferred to an autosampler vial, injected into the chromatographic system, and quantified on MS/MS detector. Pharmacokinetic parameters including AUC0-4, Cmax, Tmax, t1/2, MRT, Cl and Vd were calculated using WinNonlin 6.3 software. Table 3 summarizes key PK parameters for test compounds (AUC(0-t): the area under the curve from time 0 to time t; AUC(0-∞): the area under the curve from time 0 to infinity; t1/2: Half-life; CL: clearance; C0: the concentration of drug in blood if the drug molecules enter the circulation and are distributed immediately (i.e., at time 0)).

For data set [2], the target named is T1, Recombinant human 5′-nucleotidase (hCD73) (Homo sapiens, UniProt P21589).
T1 sequence (P21589 27-549): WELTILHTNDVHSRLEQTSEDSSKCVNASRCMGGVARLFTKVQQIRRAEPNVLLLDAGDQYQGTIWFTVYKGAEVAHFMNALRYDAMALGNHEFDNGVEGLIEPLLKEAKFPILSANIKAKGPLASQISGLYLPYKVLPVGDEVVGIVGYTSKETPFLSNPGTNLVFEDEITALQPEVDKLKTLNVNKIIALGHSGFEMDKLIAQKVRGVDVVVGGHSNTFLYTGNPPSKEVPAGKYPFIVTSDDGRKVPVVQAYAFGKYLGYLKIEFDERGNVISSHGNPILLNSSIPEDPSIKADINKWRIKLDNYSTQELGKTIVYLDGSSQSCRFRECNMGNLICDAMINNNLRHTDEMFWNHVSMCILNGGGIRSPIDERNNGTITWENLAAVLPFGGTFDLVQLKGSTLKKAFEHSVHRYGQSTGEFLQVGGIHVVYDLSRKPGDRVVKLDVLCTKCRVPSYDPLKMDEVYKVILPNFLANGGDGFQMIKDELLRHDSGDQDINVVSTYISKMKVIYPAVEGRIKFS
Nature of the data set: CD73 enzyme inhibition assay (recombinant hCD73, AMP substrate, phosphate detection). The class given is biochemical. Particulars: 37° C. 20 min, absorbance 635 nm. The procedure:
Test compound solution preparation: Stock solution of a test compound was prepared in DMSO at 10 mM concentration. A series of preset 10-concentration solutions of a test compound were prepared by diluting the stock solution in 5-fold gradient dilution with DMSO.
Assay buffer (1×): […] Tris, 25 mM NaCl, 1 mM MgCl2, pH 7.5, 0.005% Tween-20 (freshly prepared, and ready for use).
An aliquot of 0.25 μL of compound solution or DMSO (blank control) was added to each test well of a micro well plate. Recombinant human 5′-nucleotidase (hCD73) was diluted to 1 nM in assay buffer; and an aliquot of 25 μL hCD73 (1 nM) solution was added to the corresponding wells of the plate. The contents of the well were well-mixed, and the plate was covered with sealing film, centrifuged at 1000 rpm for 30 sec., followed by incubation at room temperature for 15 min. AMP, the substrate, was diluted to 60 μM concentration in the assay buffer. To each reaction well was added 25 μL of AMP solution. After mixing well, the plate was covered with sealing film, centrifuged at 1000 rpm for 30 sec., and incubated at 37° C. for 20 min. The absorbance signal (end point) was measured on SPARK plate reader at 635 nm (See PiColorLock™ Gold Phosphate Detection System (Abcam) test kit for reference).
The reaction wells containing CD73 enzyme, substrate AMP and DMSO (no compound) were used as positive control, and the reaction wells containing substrate AMP and DMSO but no CD73 enzyme were used as negative control. The percent (%) inhibition at each concentration of compound was calculated based on and relative to the signal in the High and Low control wells contained within each assay plate. The High control wells were considered as 0% inhibition, and the low control wells, which didn't contain any compound but rather DMSO (final concentration=0.5%), as 100% inhibition. IC50 values were obtained using GraphPad Prism software.

A further data set deals with human T cell. The data set can be described thus: CD73 cellular assay (T cell stimulation assay: CellTiter-Glo proliferation and IFN-γ ELISA). Particulars: human T cells, anti-CD3/CD28, AMP + EHNA, 72 hours. Type of data set: cell-based. The procedure:
Day 2, human T cell seeding: (a) washing the coated plate (from Day 1) with sterilized PBS buffer (2×100 uL); (b) re-suspending T cells and adjusting cell density to 0.5×10^6 cells/mL with growth media (X-VIVO 15+1% Pen/strep+1% glutamine), and seeding 100 μL/well (50,000 cells/well) in 96-well plates; (c) diluting CD28 antibody for 8× working concentration (8 μg/mL) with growth media, giving 1 μg/mL of the final concentration, followed by addition of CD28 antibody (25 μL) to cell plate; incubating the plates under 5% CO2 at 37° C. for 60 min; (d) adding compound (25 μL, 8×dilution with growth media) to cell plate, and incubating the plates under 5% CO2 at 37° C. for 60 min; (e) adding AMP (25 μL) and EHNA (25 μL, 8×dilution with growth media) to cell plate; (f) incubating the plates under 5% CO2 at 37° C. for 72 hours.
Day 5, collecting cell growth media and testing cell proliferation: (a) centrifuging the cell plate (1,000 rpm) for 5 min; (b) harvesting 150 μL of the cell culture media from each well to 96 well plate, followed by measurement of IFN-r expression by ELISA test; (c) taking a portion of the cell culture supernatant for cytokine analysis, removing the remaining supernatant, followed by addition of fresh growth media (X-VIVO 15+1% Pen/strep+1% glutamine, 100 μL); (d) adding Celltiter-Glo solution (50 μL) into each well for the measurement of cell proliferation by: (e) incubating the plates at room temperature for 10 min on a shaker; (f) transferring 100 μL solution into 96-well white plate and taking the readout of the Celltiter-Glo data using a TECAN Reader.
On the technique in general: In ATP-based viability assays light output follows the ATP content of the culture.

Setting [3] is: read-out: EC50 CTG (CellTiter-Glo, cell proliferation).
Where [4] appears, read: read-out: EC50 IFN-γ (ELISA, indicator for T-cell activity).

Read-outs that look alike come from different tables or passages of the source.

With `C[C@H](Nc1cc(Cl)nc2c1cnn2[C@@H]1O[C@H](COP(=O)(O)CP(=O)(O)O)[C@@H](O)[C@H]1O)c1ccccc1F` [Compound a, AB680, reference compound], in data set [1], the clearance was 0.042 L/h/kg. As for `O=P(O)(O)CP(=O)(O)OC[C@H]1O[C@@H](n2cnc3c(N4CCC5(CCCCC5)C4)nc(Cl)nc32)[C@@H](O)C1O` (stereo partly drawn) [Compound b, reference compound], in data set [1], the clearance is 0.111 L/h/kg. Further, the IC50 in data set [2] worked out at 1.08 nM. Besides, the EC50 in the data set with human T cell (setting [3]) was 7.53 nM; in the data set on human T cell (setting [4]), 14.2 nM. With `O=P(O)(O)CP(=O)(O)OC[C@H]1O[C@@H](n2cnc3c(N4CC(c5ccccc5)c5ccccc54)nc(Cl)nc32)C(O)C1O` (stereo partly drawn) [Compound d-38], the IC50 in data set [2] stood at 1.92 nM. `O=P(O)(O)CP(=O)(O)OC[C@H]1O[C@@H](n2cnc3c(N4CC5(CCc6ccccc65)C4)nc(Cl)nc32)[C@@H](O)C1O` (stereo partly drawn) [d-1] had a clearance in data set [1] of 0.159 L/h/kg. Further, in data set [2], the IC50 was 0.47 nM. Also, the EC50 stood at 3.13 nM in the data set with human T cell (setting [3]) and 1.45 nM in the data set on human T cell (setting [4]).

`O=P(O)(O)CP(=O)(O)OC[C@H]1O[C@@H](n2cnc3c(N4CCC5(CCCc6ccccc65)C4)nc(Cl)nc32)[C@@H](O)C1O` (stereo partly drawn) [d-6] showed a clearance in data set [1] of 0.153 L/h/kg. With `O=P(O)(O)CP(=O)(O)OC[C@H]1O[C@@H](n2cnc3c(N4CC5(CCCCC5)c5ccccc54)nc(Cl)nc32)[C@@H](O)C1O` (stereo partly drawn) [d-7], in data set [1], the clearance is 0.005 L/h/kg. Moreover, the IC50 in data set [2] is 1.8 nM. As for `O=P(O)(O)CP(=O)(O)OC[C@H]1O[C@@H](n2cnc3c(N4CCC5(CCc6ccccc65)C4)nc(Cl)nc32)C(O)C1O` (stereo partly drawn) [d-8], the IC50 in data set [2] was found to be 0.75 nM. As for `O=P(O)(O)CP(=O)(O)OC[C@H]1O[C@@H](n2cnc3c(N4CC5(Cc6ccccc6C5)C4)nc(Cl)nc32)[C@@H](O)C1O` (stereo partly drawn) [d-9], the clearance in data set [1] is 0.045 L/h/kg. Moreover, in data set [2], the IC50 was 0.73 nM. `O=P(O)(O)CP(=O)(O)OC[C@H]1O[C@@H](n2cnc3c(N4CC5(CCCc6ccccc65)C4)nc(Cl)nc32)[C@@H](O)C1O` (stereo partly drawn) [d-12] gave a clearance in data set [1] of 0.102 L/h/kg. For the same molecule, the IC50 in data set [2] turned out to be 0.4 nM.

For the molecule `O=P(O)(O)CP(=O)(O)OC[C@H]1O[C@@H](n2cnc3c(N4CC5(CCCC5)c5ccccc54)nc(Cl)nc32)[C@@H](O)C1O` (stereo partly drawn) [d-13], the clearance in data set [1] is 0.003 L/h/kg. Also, in data set [2], the IC50 was 1.5 nM. For `O=P(O)(O)CP(=O)(O)OC[C@H]1O[C@@H](n2cnc3c(N4CC5(CCC5)c5ccccc54)nc(Cl)nc32)[C@@H](O)C1O` (stereo partly drawn) [d-20], in that order: 0.008 L/h/kg and 1.29 nM. `O=P(O)(O)CP(=O)(O)OC[C@H]1O[C@@H](n2cnc3c(N4CCC5(CC4)Cc4ccccc4C5)nc(Cl)nc32)[C@@H](O)C1O` (stereo partly drawn) [d-21] had a clearance in data set [1] of 0.137 L/h/kg. Also, in data set [2], the IC50 turned out to be 1.42 nM. Regarding `O=P(O)(O)CP(=O)(O)OC[C@H]1O[C@@H](n2cnc3c(N4CC5(CCCCCC5)c5ccccc54)nc(Cl)nc32)[C@@H](O)C1O` (stereo partly drawn) [d-22], the clearance in data set [1] was 0.006 L/h/kg.

`O=P(O)(O)CP(=O)(O)OC[C@H]1O[C@@H](n2cnc3c(N4CCC(c5ccccc5)(c5ccccc5)C4)nc(Cl)nc32)C(O)C1O` (stereo partly drawn) [d-33]: the IC50 in data set [2] stood at 1.76 nM. Besides, the EC50 in the data set on human T cell (setting [3]) amounted to 4.07 nM; in the data set with human T cell (setting [4]) it was 2.53 nM. On to `O=P(O)(O)CP(=O)(O)OC[C@H]1O[C@@H](n2cnc3c(N4CC(c5ccccc5)(c5ccccc5)C4)nc(Cl)nc32)C(O)C1O` (stereo partly drawn) [d-35], for which the IC50 in data set [2] was found to be 1.39 nM. `O=P(O)(O)CP(=O)(O)OC[C@H]1O[C@@H](n2cnc3c(N4CC(c5ccccc5)C(c5ccccc5)C4)nc(Cl)nc32)C(O)C1O` (stereo partly drawn) [d-36]: the IC50 in data set [2] is 1.86 nM.

The clearance is the rate of elimination divided by the concentration. A high value points to efficient removal. By IC50 is commonly meant the concentration that inhibits the measured activity by half.

The values are drawn from US20240024346A1, “CD73 INHIBITORS AND PHARMACEUTICAL USES THEREOF” (RISEN (SUZHOU) PHARMA TECH CO., LTD., priority 2020, published 2024).
